The values that follow are results of earlier work, collected in patent US20130084272A1, “COMPOSITIONS, KITS AND METHODS FOR NUTRITIONAL SUPPLEMENTATION WITH TWELVE CARBON CHAIN FATTY ACIDS AND TWELVE CARBON CHAIN ACYLGLYCEROLS” (priority 2011, published 2013).

The subject of this series is exotoxins from Gram-positive bacteria. As to conditions: Peterson et al. 2006; cited from earlier work.

In the case of `CCCCCCCCCCCC(=O)OCC(O)CO` (stereo not shown) [monolaurin, glycerol monolaurate], the “Effect on exotoxins from Gram-positive bacteria” value is on record as “inhibit the effects of exotoxins”.
